“And” between values parts separate entries of the source, which are not always exact repeats. Equal entries are not always repeated.
Columns and labels:
[1] = tested on: pediatric subjects with moderate atopic dermatitis; assay: Phase IIIb trial, efficacy by Investigator global assessment (IGA) score on day 43; assay type: in vivo, human; details: for Efficacy (IGA): number of patients that experienced efficacy / Efficacy (IGA): percent of patients that experienced efficacy: IGA score of 0 or 1 on day 43
Description: The genetic locus was identified in a Phase IIIb trial that was designed as a head to head comparison of pimecrolimus cream 1% and tacrolimus ointment 0.03%. The six-week investigator-blinded trial of pediatric subjects with moderate atopic dermatitis explored the incidence of local application site reactions induced by the two topical macrolactams, as well as their efficacy, safety and cosmetic acceptability. Blood samples for pharmacogenetic analysis were collected from consenting participants in the clinical trial, to define a genetic basis for response to either treatment. Statistical analysis. Investigator global assessment (IGA) scores were used as the primary marker of efficacy in the pharmacogenetic studies. IGA scores at the end of the Investigator Blinded phase of the trial (Day 43) were used as the main time-point for comparison. Last observation carried forward imputations were only required for one subject at day 43. In this case, there was no IGA score available after Day 29, and the score on this day was used in place of a day 43 IGA score. IGA scores were re-coded, as was done to assess efficacy in the trial itself. An IGA score of 0 or 1 was considered successful treatment and IGA scores of 2-5 were counted as treatment failure. The severity of pruritus was also used as a marker of efficacy. Pruritus scores were dichotomized into absence (score=0) or presence (score=1, 2 or 3) of pruritus. The fisher's exact model was employed to examine the genotype effect on each efficacy variable. All statistical analyses were done using SAS version 8.2 software.

[2] = tested on: pediatric subjects with moderate atopic dermatitis; assay: Phase IIIb trial, severity of pruritus score on day 43; assay type: in vivo, human
Description: The genetic locus was identified in a Phase IIIb trial that was designed as a head to head comparison of pimecrolimus cream 1% and tacrolimus ointment 0.03%. The six-week investigator-blinded trial of pediatric subjects with moderate atopic dermatitis explored the incidence of local application site reactions induced by the two topical macrolactams, as well as their efficacy, safety and cosmetic acceptability. Blood samples for pharmacogenetic analysis were collected from consenting participants in the clinical trial, to define a genetic basis for response to either treatment.
Statistical analysis. Investigator global assessment (IGA) scores were used as the primary marker of efficacy in the pharmacogenetic studies. IGA scores at the end of the Investigator Blinded phase of the trial (Day 43) were used as the main time-point for comparison. Last observation carried forward imputations were only required for one subject at day 43. In this case, there was no IGA score available after Day 29, and the score on this day was used in place of a day 43 IGA score. IGA scores were re-coded, as was done to assess efficacy in the trial itself. An IGA score of 0 or 1 was considered successful treatment and IGA scores of 2-5 were counted as treatment failure. The severity of pruritus was also used as a marker of efficacy. Pruritus scores were dichotomized into absence (score=0) or presence (score=1, 2 or 3) of pruritus. The fisher's exact model was employed to examine the genotype effect on each efficacy variable. All statistical analyses were done using SAS version 8.2 software.
Association between polymorphic markers and relief from pruritus. A secondary efficacy variable used in the trial was pruritus. An analysis was done to see if ASN60THR LTA and (−1031) TNF associated with this efficacy variable (assessed on day 43).

[3] = (−1031) TNF genotype CC, day 43
[4] = (−1031) TNF genotype CT, day 43
[5] = (−1031) TNF genotype TT, day 43
[6] = ASN60THR LTA genotype AA, day 43
[7] = ASN60THR LTA genotype AC, day 43
[8] = ASN60THR LTA genotype CC, day 43
[9] = VAL63ILE CCR2 (TWT# 47987) genotype AG, day 43
[10] = VAL63ILE CCR2 (TWT# 47987) genotype GG, day 43
[11] = all (−1031) TNF genotypes, day 43
[12] = all ASN60THR LTA genotypes, day 43
[13] = all VAL63ILE CCR2 genotypes, day 43

## C=CC[C@@H]1/C=C(\C)C[C@H](C)C[C@H](OC)[C@H]2O[C@@](O)(C(=O)C(=O)N3CCCC[C@H]3C(=O)O[C@H](/C(C)=C/[C@@H]3CC[C@@H](O)[C@H](OC)C3)[C@H](C)[C@@H](O)CC1=O)[C@H](C)C[C@@H]2OC [tacrolimus]
[1]; [3]
  No success (IGA ≧ 2), number of individuals: 1
  No success (IGA ≧ 2), percent: 50%
  Success (IGA = 0 or 1), number of individuals: 1
  Success (IGA = 0 or 1), percent: 50%
[1]; [4]
  No success (IGA ≧ 2), number of individuals: 2
  No success (IGA ≧ 2), percent: 40%
  Success (IGA = 0 or 1), number of individuals: 3
  Success (IGA = 0 or 1), percent: 60%
[1]; [5]
  No success (IGA ≧ 2), number of individuals: 8
  No success (IGA ≧ 2), percent: 47%
  Success (IGA = 0 or 1), number of individuals: 9
  Success (IGA = 0 or 1), percent: 53%
[1]; [6]
  No success (IGA ≧ 2), number of individuals: 3
  No success (IGA ≧ 2), percent: 43%
  Success (IGA = 0 or 1), number of individuals: 4
  Success (IGA = 0 or 1), percent: 57%
[1]; [7]
  No success (IGA ≧ 2), number of individuals: 4
  No success (IGA ≧ 2), percent: 40%
  Success (IGA = 0 or 1), number of individuals: 6
  Success (IGA = 0 or 1), percent: 60%
[1]; [8]
  No success (IGA ≧ 2), number of individuals: 4
  No success (IGA ≧ 2), percent: 57%
  Success (IGA = 0 or 1), number of individuals: 3
  Success (IGA = 0 or 1), percent: 42%
[1]; LTB (TWT#128095) genotype AC
  No success (IGA ≧ 2), number of individuals: 3
  No success (IGA ≧ 2), percent: 60%
  Success (IGA = 0 or 1), number of individuals: 2
  Success (IGA = 0 or 1), percent: 40%
[1]; LTB (TWT#128095) genotype CC
  No success (IGA ≧ 2), number of individuals: 8
  No success (IGA ≧ 2), percent: 44%
  Success (IGA = 0 or 1), number of individuals: 10
  Success (IGA = 0 or 1), percent: 56%
[1]; Pharmacogenomics samples
  Efficacy (IGA): number of patients that experienced efficacy: 13
  Efficacy (IGA): percent of patients that experienced efficacy: 52%
[1]; Trial subjects
  Efficacy (IGA): number of patients that experienced efficacy: 27
  Efficacy (IGA): percent of patients that experienced efficacy: 40%
[1]; [9]
  No success (IGA ≧ 2), number of individuals: 2
  No success (IGA ≧ 2), percent: 20%
  Success (IGA = 0 or 1), number of individuals: 8/10 and 8
  Success (IGA = 0 or 1), percent: 80%
[1]; [10]
  No success (IGA ≧ 2), number of individuals: 9
  No success (IGA ≧ 2), percent: 69%
  Success (IGA = 0 or 1), number of individuals: 4/13 and 4
  Success (IGA = 0 or 1), percent: 31%
[1]; [11]
  No success (IGA ≧ 2), number of individuals, Total: 11
  Success (IGA = 0 or 1), number of individuals, Total: 13
[1]; [12]
  No success (IGA ≧ 2), number of individuals, Total: 11
  Success (IGA = 0 or 1), number of individuals, Total: 13
[1]; all LTB (TWT#128095) genotypes
  No success (IGA ≧ 2), number of individuals, Total: 11
  Success (IGA = 0 or 1), number of individuals, Total: 12
[1]; [13]
  No success (IGA ≧ 2), number of individuals, Total: 11
  Success (IGA = 0 or 1), number of individuals, Total: 12
[2]; Pharmacogenomics samples
  Pruritus (day 43) score 0, number of subjects: 5
  Pruritus (day 43) score 0, percent of subjects: 20%
  Pruritus (day 43) score 1, number of subjects: 10
  Pruritus (day 43) score 1, percent of subjects: 40%
  Pruritus (day 43) score 2, number of subjects: 7
  Pruritus (day 43) score 2, percent of subjects: 28%
  Pruritus (day 43) score 3, number of subjects: 3
  Pruritus (day 43) score 3, percent of subjects: 12%
[2]; Trial subjects
  Pruritus (day 43) score 0, number of subjects: 11
  Pruritus (day 43) score 0, percent of subjects: 16%
  Pruritus (day 43) score 1, number of subjects: 35
  Pruritus (day 43) score 1, percent of subjects: 50%
  Pruritus (day 43) score 2, number of subjects: 19
  Pruritus (day 43) score 2, percent of subjects: 27%
  Pruritus (day 43) score 3, number of subjects: 3
  Pruritus (day 43) score 3, percent of subjects: 4%

— US20070155772A1, “Use of genetic polymorphisms that associate with efficacy of treatment of inflammatory disease” (priority 2003, published 2007)
